Measurements: patent US12514894B2, “Traditional Chinese medicine composition for preventing and treating diabetes, traditional Chinese medicine preparation, and use thereof” (ZHEJIANG CHINESE MEDICAL UNIVERSITY, priority 2022, dated 2026)
Read-outs that look alike come from different tables or passages of the source.

What was measured:
mouse sperm = details: CP 0.04 g/(kg · BW), 5 days gavage, day 35
Protocol: The dose planning and preparation methods of the positive control and samples are shown in the in vivo micronucleus assay in mouse bone marrow. Twenty-five healthy male ICR mice weighing 25.3-29.8 g were randomly divided into three sample dose groups of 2.5, 5.0 and 10.0 mL/(kg·BW), a solvent control group (purified water), and a positive control group [CP 0.04 g/(kg-BW)] by body weight, with five mice in each group. Animals in each group were given gastric gavage once a day for five consecutive days, and the gavage capacity was 20 mL/(kg·BW). At 35 days after the first administration of the test solution, the mice were sacrificed, bilateral epididymides were removed, and the epididymides were cut longitudinally with ophthalmic scissors, filtered, smeared, dried, fixed with methanol, stained with 2% (m:V) eosin, and microscopically observed.

[1] = system: mouse bone marrow polychromatic erythrocytes (PCEs); details: CP 0.04 g/(kg · BW)
Protocol: The test solutions of each dose group were prepared by diluting 2.5, 5.0, and 10.0 mL of TCM decoction to 20 mL with purified water, respectively (each equivalent to 25, 50, and 100 times the recommended daily intake of an adult). For a positive control, 0.04 g of cyclophosphamide (CP) was diluted with purified water to 20 mL for later use. Fifty ICR mice weighing 25.1-30.0 g were randomly divided into three sample dose groups of 2.5, 5.0 and 10.0 mL/(kg·BW), a solvent control group (purified water) and a positive control group [CP 0.04 g/(kg·BW)] by gender and body weight, with 10 mice in each group, half male and half female. The gavage capacity was 20 mL/(kg·BW) each time, and the femoral bone marrow was suspended in calf serum for direct smear, methanol fixation, and Giemsa staining 6 h after the second gastric gavage. […] The number of normochromatic erythrocytes (NCEs) observed was counted while 200 PCEs per animal was observed. The ratio of both (PCE/NCE) was calculated. The results are as follows (see Table 1).

[2] = system: standard tester strains TA97a, TA98, TA100, and TA102; assay: Ames test, conclusion over the four tester strains; format: cell-based, Salmonella typhimurium; details: each of four strains, regardless of addition of S9, two duplicate tests
Protocol: (§1) The TCM decoction (20 mL) was sterilized at 121° C. for 20 min as a test solution. During the test, 0.1 mL of the test solution was added to each dish in the highest dose group, namely 5 μL/dish, and there was no contamination or inhibition during the pre-test. In the formal test, the test solution in the highest dose group was serially diluted 5 times with sterile purified water successively, and prepared into four test solutions with doses of 1, 0.2, 0.04, and 0.008 μL/dish, and five sample dose groups were formed. In addition, a solvent control group (sterile purified water), a blank control group (spontaneous reverse mutation group) and four positive control groups were set up. The solvents and dosages required for the preparation of positive controls sodium azide, Dexon, 2-aminofluorene and 1,8-dihydroxyanthraquinone are shown in Table 1. Sequentially, 0.1 mL each of the fresh enrichment broth of tester strain and the test solution were added into a top-layer culture medium held in a 45° C. water bath, 0.5 mL of 10% (V:V) S9 mixture was added when activated, and an equal volume of 0.2 mol/L pH7.4 phosphate buffer saline (PBS) was added without activation; after mixing well, the mixture was rapidly poured onto the bottom-layer culture medium, and the plate was rotated to uniformly distribute the top-layer culture medium on the bottom layer. […]

[3] = system: Salmonella typhimurium TA102; assay: Ames test, strain TA102; format: cell-based; details: Test 2
Protocol: as §1

[4] = system: Salmonella typhimurium TA97a; assay: Ames test, strain TA97a; format: cell-based; details: Test 2
Protocol: as §1

[5] = system: Salmonella typhimurium TA100; assay: Ames test, strain TA100; format: cell-based; details: Test 2
Protocol: as §1

[6] = system: SD rats with diabetes of dampness-heat pattern; assay: Lowering of blood glucose in rats with type 2 diabetes; format: in vivo, rat
Text: Dose Planning: Low-, medium- and high-dose groups were designed in this experiment: 10 g (crude drug)/kg, 20 g (crude drug)/kg, and 40 g (crude drug)/kg. The dose groups were given by gastric gavage for 30 consecutive days, and the control group was given an equal quantity of normal saline.
SD rats with diabetes of dampness-heat pattern were modeled with reference to the 2014 edition of the Ideas and Methods of Clinical-mimetic Research on Integrated Animal Models of Disease and Syndrome. The specific method was as follows: Sixty specific pathogen-free (SPF) grade male Sprague-Dawley (SD) rats weighing 160-180 g were selected, 10 male SD rats were assigned to a normal control group, and the rest 50 ones were fasted but not deprived of water for 16-18 h (21:00 PM to 14:00 PM the next day); STZ was prepared into a 1.0% solution with […] citric acid buffer (pH=4.2, 4° C.), and the rats were fed with high-sugar and high-fat diet on Day 3 after tail vein injection of 10 mg kg^−1 STZ; the type 2 diabetes model was replicated by continuous high-sugar and high-fat feeding for 6-8 weeks (impaired glucose tolerance was deemed as successful modeling), and the normal control group was fed with normal diet. Later, after all rats were fed with normal animal feed and normally drank water for one week, they fasted but not deprived of water for 12 h; the tails of the rats were disinfected with alcohol, and the fasting plasma glucose of the rats was measured by tail vein blood sampling. […] After the successful modeling, the rats were given normal animal feed and access to water ad libitum for one week, so as to detect the stability of the model.
After the successful modeling, 50 rats were divided into a model control group, a positive control group, a low-dose TCM decoction group, a medium-dose TCM decoction group, and a high-dose TCM decoction group. Ten rats in the blank control group were given access to ordinary animal feed and water ad libitum, and an equal volume of normal saline was administered daily by gastric gavage. Ten rats in the model control group were given access to ordinary animal feed and water ad libitum, and an equal volume of normal saline was administered daily by gastric gavage. Ten rats in the positive control group were given access to ordinary animal feed and water ad libitum, and 0.25 g/kg metformin was administered daily by gastric gavage. Ten rats in the low-dose TCM decoction group were given access to ordinary animal feed and water ad libitum, and 10 g (crude drug)/kg TCM decoction was administered daily by gastric gavage. Ten rats in the medium-dose TCM decoction group were given access to ordinary animal feed and water ad libitum, and 20 g (crude drug)/kg TCM decoction was administered daily by gastric gavage. Ten rats in the high-dose TCM decoction group were given access to ordinary animal feed and water ad libitum, and 40 g (crude drug)/kg TCM decoction was administered daily by gastric gavage. All rats were fed for a total of 30 days. Rat body weight, fasting plasma glucose, and insulin level were measured before and after SD rat modeling and after gastric gavage.

[7] = system: Salmonella typhimurium TA98; assay: Ames test, strain TA98; format: cell-based; details: Test 2
Protocol: as §1

[8] = 0.25 g/kg metformin daily by gavage, 30 days
[9] = positive control and the three TCM decoction dose groups, P<0.05
[10] = positive control group (0.25 g/kg metformin), baseline
[11] = positive control group (0.25 g/kg metformin), before treatment

O=P1(N(CCCl)CCCl)NCCCO1 (centres unmarked) [CP, cyclophosphamide]
Abnormality rate (mouse sperm): 6.49 ± 0.74 %
Total number of abnormal sperms (mouse sperm): 357 n
Type of abnormal sperms: Amorphous (mouse sperm): 157
Type of abnormal sperms: Banana-like (mouse sperm): 8
Type of abnormal sperms: Folded (mouse sperm): 6
Type of abnormal sperms: Hookless (mouse sperm): 169
Type of abnormal sperms: Large (mouse sperm): 7
Type of abnormal sperms: Two-head (mouse sperm): 3
Type of abnormal sperms: Two-tailed (mouse sperm): 7
Frequency of micronucleated cells ([1]; female): 15.64 ± 5.16 ‰
Number of micronucleated PCEs ([1]; female): 88 n
PCE/NCE ([1]; female): 1.02 ± 0.18
Frequency of micronucleated cells ([1]; male): 17.57 ± 4.87 ‰
Number of micronucleated PCEs ([1]; male): 78 n
PCE/NCE ([1]; male): 1.03 ± 0.16

CN(C)C(=N)N=C(N)N [Positive control, metformin]
number of revertant colonies compared with the solvent control [2]: more than twice that of the corresponding solvent control
number of revertant colonies ([3]; TA102, +S9, positive control): 1085 ± 91
number of revertant colonies ([3]; TA102, −S9, positive control): 973 ± 76
number of revertant colonies ([4]; +S9, positive control): 1061 ± 84
number of revertant colonies ([4]; −S9, positive control): 1027 ± 98
number of revertant colonies ([5]; TA100, +S9, positive control): 1171 ± 91
number of revertant colonies ([5]; TA100, −S9, positive control): 987 ± 117
Body weight before administration [6, 8]: 435.4 ± 25.3 g
fasting plasma glucose: Blood glucose after administration [6, 8]: 6.65 ± 1.39 mmol/L
insulin level After administration [6, 8]: 44.13 ± 5.42 uIU/mL
body weight after administration compared with model control group [6, 9]: lower than that in the model control group
fasting plasma glucose after administration compared with after modeling [6, 9]: significantly lower than that after modeling
insulin levels after administration compared with after modeling [6, 9]: significantly lower than those after modeling
Body weight before modeling [6, 10]: 166.3 ± 10.8 g
fasting plasma glucose: Blood glucose before modeling [6, 10]: 6.02 ± 0.48 mmol/L
Body weight after modeling [6, 11]: 463.5 ± 17.3 g
fasting plasma glucose: Blood glucose after modeling [6, 11]: 20.15 ± 3.23 mmol/L
insulin level Before administration [6, 11]: 73.45 ± 9.45 uIU/mL
number of revertant colonies ([7]; TA98, +S9, positive control): 1049 ± 94
number of revertant colonies ([7]; TA98, −S9, positive control): 1091 ± 78
